Reference: US11433136B2, “Polyacetal polymers, conjugates, particles and uses thereof” (THE GENERAL HOSPITAL CORPORATION, priority 2015, dated 2022)

System: PAN02 tumors
Assay: Orthotopic PAN02 pancreatic (PDAC) tumors in lean and obese mice
Format: in vivo, mice (C57BL/6)
Procedure: Diet started at six weeks of age, continued for ten weeks (C57BL/6 and FVB), at which time tumors were implanted, and then continued until the end of experiments. In the spontaneous tumor models, diets were administered until tumor collection. Mice genetically deficient for leptin (ob/ob) on a standard chow for seven weeks gained weight compared to age matched WT mice (n=8-10/group for C57Bl/6, FVB and ob/ob, 4-10/group for KPC, 7-21/group for iKRAS). Left bars represent mice fed a low-fat diet, right bars represent mice fed a high fat diet for all groups except C57/B6 on the far right of the graph, in which the right bar represents the ob/ob mice. […] PAN02 and AK4.4 syngeneic tumors were orthotopically implanted in C57BL/6 and FVB mice respectively at ten weeks of diet (lean diet, left bars; and obese diet or ob/ob mice, right bars); ob/ob mice were implanted with PAN02 tumors at seven weeks of age. Tumors were collected 21 days later. Obese animals presented with higher tumor weights than lean counterparts in all models (n=8-10/group). FIG. 7D is representative images of mesenteric peritoneal dissemination in lean and obese mice implanted with PAN02 tumors. Mesenteries collected at the same time as tumors in FIG. 7C. FIG. 7E is a graph showing the quantification of mesenteric peritoneal metastasis in the PAN02 model. FIG. 7F is a graph showing the quantification of retro-peritoneal metastasis in the AK4.4 model. Data are shown as mean±standard error of the mean (SEM). P values were determined by the Student t-test. *, P<0.05; **, P<0.01; ***, P<0.001.
FIG. 9A is representative pictures of CD31(+) vessels and lectin in PAN02 tumors. Scale bars: 200 μm. FIG. 9B is a graph showing the quantification of the total (CD31+) and lectin-positive (CD31/lectin+) vessel area in PAN02 tumors. Obese mice (right bars) presented with decreased perfusion (n=3-6 tumors/group) compared to lean mice (left bars). […] Obese mice presented with increased hypoxia in tumors. […] 5-FU quantified via high performance liquid chromatography (HPLC). […] PAN02 tumors were orthotopically implanted at ten weeks of diet, treatments were initiated at day seven post-implantation and tumors resected at day 19. […] Data are shown as mean±SEM. P values were determined by the Student t-test unless otherwise stated. *, P<0.05; **, P<0.01
Expression of genes associated with AT-1 pathway activation and fibrosis/desmoplasia is increased in PAN02 (FIG. 10A) and AK4.4 (FIG. 10B) tumors from obese mice (right bars) in comparison to lean mice (left bars). […] Data normalized to lean group. 3-4 samples per group pooled in one single PCR array fibrosis gene set plate. […] Of note, similar to αSMA, the changes of AT1, as well as other desmoplasia related markers, were relatively mild in the lean setting. […] Data are shown as mean±SEM with the exception of FIGS. 10A and 10B. P values were determined by the Student t-test unless otherwise stated. *, P<0.05; **, P<0.01, ***p<0.001.
Obesity promoted infiltration of myeloid Gr-1(+)F4/80(−) cell population in PAN02 tumors in obese mice. FIG. 11B is a quantification normalized by total viable cells (i) or total CD45 leucocytes (ii) (n=4-6 tumors/group). FIG. 11C is representative FACS scatter plots of CD45(+)CD11b(+)Ly6G(+) tumor associated neutrophils (TANs), CD8(+) cytotoxic lymphocytes and CD4(+)CD25(+) regulatory T cells in PAN02 tumors in lean and obese setting. […] Obese promoted an increase in TANs and a decrease in CD8 cells in PAN02 tumors. A strong tendency for increased Tregs was also observed. […] Scale bars: 1 mm (whole tumors) and 100 μm (caption). […] (n=4-6 tumors/group). For bar graphs in FIGS. 11A, 11B, 11D, and 11E, left bars represent lean mice, and right bars represent obese mice. For the bar graph in FIG. 11J, left bars represent obese mice, and right bars represent obese mice with TAN depletion. Data are shown as mean±SEM. […]

O=c1[nH]cc(F)c(=O)[nH]1 [Example 5-FU, 5-fluorouracil]
delivery of chemotherapy to tumors, 5-FU quantified via HPLC (obese vs lean mice): decreased delivery
response to chemotherapy (tumor growth) (obese vs lean, treatment from day 7, tumors resected day 19): less effective in preventing PAN02 tumor growth in obese animals than in lean

CCCCc1nc(Cl)c(CO)n1Cc1ccc(-c2ccccc2-c2nn[nH]n2)cc1 [losartan]
response to chemotherapy with AT1 blockade (losartan with 5-FU, lean and obese): improved response to chemotherapy in obese, but not in lean animals
tumor αSMA protein expression (obese and lean): tendency for reduced tumor αSMA protein expression in obese but not lean setting
chemotherapy delivery to tumors (obese but not lean mice): increase chemotherapy delivery
tumor perfusion (obese but not lean mice): tended to improve perfusion
cytokine expression in tumors (multiplex protein) (obese mice): reduced the expression of multiple cytokines including IL-1
